Laboratory results reported in BindingDB's records for doi:10.1016/j.ejmech.2016.02.023 (Rhône-Poulenc Rorer, 2016).

Assay: Antagonist activity at CRTH2 receptor in human eosinophils by ESC assay

Row | IC50 | Structure (SMILES)
1 | 12 nM | Cc1c(CC(=O)O)c2ccncn2c1Cc1ccccc1S(=O)(=O)c1ccccc1
2 | 6 nM | COc1ccc(S(=O)(=O)c2ccc(F)cc2)c(Cc2c(C)c(CC(=O)O)c3ccncn23)c1
